Measured values from patent publication US20240270739A1, “Heteroaryl Fluoroalkenes As DGK Inhibitors” (Incyte Corporation, priority 2023, published 2024).

What was measured:
DGKα = target: T1, DGKα (Homo sapiens, UniProt P23743); experiment: In vitro DGKα inhibition assay (ADP-Glo); assay type: biochemical; details: His-tagged human recombinant enzyme, 0.1 nM DGKα, 50 μM ATP, 20 μM DLG, 90 minute incubation
T1 construct: His; purchased Signal Chem D21-10BH
Description: (§1) The DGKα and DGKζ biochemical reactions were performed using His-tagged human recombinant enzymes (Signal Chem, DGKα, #D21-10BH; DGKζ, #D30-10H)) and DLG (Dilauroyl-sn-glycerol) lipid substrate (Signal Chem, #D430-59). ADP-Glo assay was performed using ADP-Glo™ kinase Assay kit (Promega, #V9104). The reactions were carried out in assay buffer containing 40 mM Tris, pH 7.5, 0.1% CHAPS, 0.1% Prionex, 40 mM NaCl, 5 mM MgCl2, 1 mM CaCl2, and 1 mM DTT. DGKα reactions contained 0.1 nM DGKα, 50 μM ATP, and 20 μM DLG. And DGKζ reactions contained 0.4 nM DGKζ, 30 μM ATP, and 20 μM DLG.
(§2) For compound inhibition studies, 40 nL test compound in DMSO was added to wells of white polystyrene plates in 384-well (Greiner, #784075) or 1536-well format (Greiner, #782075). Compounds were added with top concentration of 2 mM with 11 point, 3-fold dilution series. Enzyme solution (contains 2×DGK enzyme concentration in 1× assay buffer) was added to the plate in 2 μL/well volume, followed by 2 μL/well of substrate solution (contains 2× concentration of ATP and DLG substrate in 1× assay buffer). Plates were then centrifuged for 1 min at 1200 RPM and sealed or lidded. For 4 μL reaction volume, test compounds were therefore diluted 100× to final top concentration of […]. After 90 minute incubation, reactions were quenched by addition of 2 μL/well Promega ADP-Glo Reagent, followed by centrifugation and lidding. After 60 min incubation, 2 μL/well Promega Kinase Detection Reagent was added, plates centrifuged, and incubated for 30 min. Plates were then read using Luminescence method on BMG PHERAstar FSX plate reader. Percent inhibition was calculated and IC50s were determined using 4-parameter fit in Genedata Screener. Labcyte Echo acoustic dispenser was used for compound addition, and Formulatrix Tempest liquid handler was used for all reagent dispenses. The compounds of the disclosure were tested in one or more of the assays described above, and the resulting data are shown in Table A.

DGKζ = target: T2, DGKζ (Homo sapiens, UniProt Q13574); experiment: In vitro DGKζ inhibition assay (ADP-Glo); assay type: biochemical; details: His-tagged human recombinant enzyme, 0.4 nM DGKζ, 30 μM ATP, 20 μM DLG, 90 minute incubation
T2 construct: His; purchased Signal Chem D30-10H
T2 sequence (Q13574 whole entry): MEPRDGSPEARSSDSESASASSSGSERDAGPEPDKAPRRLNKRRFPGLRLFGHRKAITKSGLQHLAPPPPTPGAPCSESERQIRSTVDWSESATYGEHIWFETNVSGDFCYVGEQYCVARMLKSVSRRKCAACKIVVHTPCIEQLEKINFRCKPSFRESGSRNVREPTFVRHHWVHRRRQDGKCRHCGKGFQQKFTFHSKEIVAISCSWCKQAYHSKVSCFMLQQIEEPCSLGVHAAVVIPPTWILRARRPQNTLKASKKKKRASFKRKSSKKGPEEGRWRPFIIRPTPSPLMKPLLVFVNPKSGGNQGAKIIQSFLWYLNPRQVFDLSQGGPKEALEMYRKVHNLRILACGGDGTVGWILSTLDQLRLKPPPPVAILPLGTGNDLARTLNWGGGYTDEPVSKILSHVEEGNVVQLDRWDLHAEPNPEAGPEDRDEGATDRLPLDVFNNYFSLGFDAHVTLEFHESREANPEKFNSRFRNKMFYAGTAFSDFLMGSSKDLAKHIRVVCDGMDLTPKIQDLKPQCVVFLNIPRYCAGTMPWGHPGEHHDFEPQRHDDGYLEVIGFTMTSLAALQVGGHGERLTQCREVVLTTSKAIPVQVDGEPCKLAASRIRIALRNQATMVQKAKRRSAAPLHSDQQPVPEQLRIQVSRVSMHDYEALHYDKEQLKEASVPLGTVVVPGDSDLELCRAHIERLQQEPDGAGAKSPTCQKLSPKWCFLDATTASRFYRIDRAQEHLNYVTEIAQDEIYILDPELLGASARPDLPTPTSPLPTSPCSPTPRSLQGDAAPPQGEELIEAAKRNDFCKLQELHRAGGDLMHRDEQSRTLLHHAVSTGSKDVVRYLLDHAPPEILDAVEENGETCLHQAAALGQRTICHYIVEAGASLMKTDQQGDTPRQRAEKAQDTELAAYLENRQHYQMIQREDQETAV
Description: as §1, §2

T1 sequence (P23743 whole entry): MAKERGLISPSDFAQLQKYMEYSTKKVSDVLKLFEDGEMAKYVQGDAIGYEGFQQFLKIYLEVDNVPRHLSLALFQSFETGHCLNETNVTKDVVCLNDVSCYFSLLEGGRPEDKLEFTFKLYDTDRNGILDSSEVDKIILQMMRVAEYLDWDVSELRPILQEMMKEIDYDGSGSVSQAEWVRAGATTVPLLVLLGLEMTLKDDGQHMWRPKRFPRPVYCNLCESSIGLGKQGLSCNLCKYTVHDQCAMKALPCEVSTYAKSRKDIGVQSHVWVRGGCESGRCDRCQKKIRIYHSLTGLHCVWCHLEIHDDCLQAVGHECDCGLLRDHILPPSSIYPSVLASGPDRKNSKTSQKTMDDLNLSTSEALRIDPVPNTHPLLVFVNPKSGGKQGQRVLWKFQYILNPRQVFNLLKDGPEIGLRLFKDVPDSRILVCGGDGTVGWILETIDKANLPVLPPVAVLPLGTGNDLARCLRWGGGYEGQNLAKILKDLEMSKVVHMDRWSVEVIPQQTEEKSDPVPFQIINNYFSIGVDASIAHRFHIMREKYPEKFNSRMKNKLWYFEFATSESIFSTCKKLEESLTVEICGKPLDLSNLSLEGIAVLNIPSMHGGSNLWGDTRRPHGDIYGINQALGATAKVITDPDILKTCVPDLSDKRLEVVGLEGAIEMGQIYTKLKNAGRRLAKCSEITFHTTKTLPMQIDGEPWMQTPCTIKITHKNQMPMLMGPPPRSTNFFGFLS

| Compound | IC50 (DGKα) [nM] | IC50 (DGKζ) [nM] |
| --- | --- | --- |
| NC[C@@H]1CCCN(c2c(/C=C(\F)c3csc(-c4ccnnc4)n3)ccc(Oc3ccccc3F)c2C(F)(F)F)C1 [Example 1, (S,Z)-(1-(6-(2-Fluoro-2-(2-(pyridazin-4-yl)thiazol-4-yl)vinyl)-3-(2-fluorophenoxy)-2-(trifluoromethyl)phenyl)piperidin-3-yl)methanamine] | ≤ 20 | ≤ 20 |
| NC[C@@H]1CCCN(c2c(/C=C(\F)c3ccn(-c4ccnnc4)n3)ccc(Oc3ccccc3F)c2C(F)(F)F)C1 [Example 2, (S,Z)-(1-(6-(2-Fluoro-2-(1-(pyridazin-4-yl)-1H-pyrazol-3-yl)vinyl)-3-(2-fluorophenoxy)-2-(trifluoromethyl)phenyl)piperidin-3-yl)methanamine] | ≤ 20 | ≤ 20 |
| COc1cc(F)ccc1Oc1ccc(/C=C(\F)c2csc(-c3ccnnc3)n2)c(N2CCC[C@@H](CN)C2)c1Cl [Example 3, (S,Z)-(1-(2-Chloro-6-(2-fluoro-2-(2-(pyridazin-4-yl)thiazol-4-yl)vinyl)-3-(4-fluoro-2-methoxyphenoxy)phenyl)piperidin-3-yl)methanamine] | ≤ 20 | ≤ 20 |
| CN(c1c(/C=C(\F)c2csc(-c3ccnnc3)n2)ccc(Oc2ccccc2F)c1C(F)(F)F)[C@H]1CCNC[C@H]1F [Example 4, (3R,4S)-3-Fluoro-N-(6-((Z)-2-fluoro-2-(2-(pyridazin-4-yl)thiazol-4-yl)vinyl)-3-(2-fluorophenoxy)-2-(trifluoromethyl)phenyl)-N-methylpiperidin-4-amine] | 20 to 200 | 20 to 200 |
| F/C(=C\c1ccc(Oc2ccccc2)c(C(F)(F)F)c1N1CCOC2(CCNCC2)C1)c1csc(-c2ccnnc2)n1 [Example 5, (Z)-4-(6-(2-Fluoro-2-(2-(pyridazin-4-yl)thiazol-4-yl)vinyl)-3-phenoxy-2-(trifluoromethyl)phenyl)-1-oxa-4,9-diazaspiro[5.5]undecane] | ≤ 20 | ≤ 20 |
| CCN1CCC2(CC1)CN(c1c(/C=C(\F)c3csc(-c4ccnnc4)n3)ccc(Oc3ccccc3)c1C(F)(F)F)CCO2 [Example 6, (Z)-9-Ethyl-4-(6-(2-fluoro-2-(2-(pyridazin-4-yl)thiazol-4-yl)vinyl)-3-phenoxy-2-(trifluoromethyl)phenyl)-1-oxa-4,9-diazaspiro[5.5]undecane] | 20 to 200 | ≤ 20 |
| F/C(=C\c1ccc(OC2CCC2)c(C(F)(F)F)c1N1CCOC2(CCNCC2)C1)c1csc(-c2ccnnc2)n1 [Example 7, (Z)-4-(3-Cyclobutoxy-6-(2-fluoro-2-(2-(pyridazin-4-yl)thiazol-4-yl)vinyl)-2-(trifluoromethyl)phenyl)-1-oxa-4,9-diazaspiro[5.5]undecane] | ≤ 20 | 20 to 200 |
| F/C(=C\c1ccc(Oc2cccc(F)c2F)c(C(F)(F)F)c1N1CCCC2(CCNCC2)C1)c1csc(-c2cnsc2)n1 [Example 8, (Z)-4-(4-(2-(4-(2,3-Difluorophenoxy)-2-(2,9-diazaspiro[5.5]undecan-2-yl)-3-(trifluoromethyl)phenyl)-1-fluorovinyl)thiazol-2-yl)isothiazole] | ≤ 20 | 20 to 200 |
| F/C(=C\c1ccc(Oc2ccccc2)c(C(F)(F)F)c1N1CCCC2(CCNCC2)C1)c1csc(N2CCC(F)(F)C2)n1 [Example 9, (Z)-2-(3,3-Difluoropyrrolidin-1-yl)-4-(1-fluoro-2-(4-phenoxy-2-(2,9-diazaspiro[5.5]undecan-2-yl)-3-(trifluoromethyl)phenyl)vinyl)thiazole] | 20 to 200 | 200 to 2000 |
| F/C(=C\c1ccc(Oc2cccc(F)c2F)c(C(F)(F)F)c1N1CCCC2(CCN(CC3CC3)CC2)C1)c1ccn(-c2ccnnc2)n1 [Example 10, (Z)-9-(Cyclopropylmethyl)-2-(3-(2,3-difluorophenoxy)-6-(2-fluoro-2-(1-(pyridazin-4-yl)-1H-pyrazol-3-yl)vinyl)-2-(trifluoromethyl)phenyl)-2,9-diazaspiro[5.5]undecane] | 20 to 200 | ≤ 20 |
| F/C(=C\c1ccc(Oc2cccc(F)c2F)c(C(F)(F)F)c1N1CCCC2(CCN(CC3CC3)CC2)C1)c1csc(-c2ccnnc2)n1 [Example 11, (Z)-4-(2-(2-(9-(Cyclopropylmethyl)-2,9-diazaspiro[5.5]undecan-2-yl)-4-(2,3-difluorophenoxy)-3-(trifluoromethyl)phenyl)-1-fluorovinyl)-2-(pyridazin-4-yl)thiazole] | ≤ 20 | ≤ 20 |
| CC(C)(O)CN1CCC2(CCCN(c3c(/C=C(\F)c4csc(-c5ccnnc5)n4)ccc(Oc4ccccn4)c3C(F)(F)F)C2)CC1 [Example 12, (Z)-1-(2-(6-(2-Fluoro-2-(2-(pyridazin-4-yl)thiazol-4-yl)vinyl)-3-(pyridin-2-yloxy)-2-(trifluoromethyl)phenyl)-2,9-diazaspiro[5.5]undecan-9-yl)-2-methylpropan-2-ol] | ≤ 20 | ≤ 20 |
| OCCN1CCC2(CCCN(c3c(/C=C(\F)c4csc(-c5ccnnc5)n4)ccc(Oc4ccccn4)c3C(F)(F)F)C2)CC1 [Example 13, (Z)-2-(2-(6-(2-Fluoro-2-(2-(pyridazin-4-yl)thiazol-4-yl)vinyl)-3-(pyridin-2-yloxy)-2-(trifluoromethyl)phenyl)-2,9-diazaspiro[5.5]undecan-9-yl)ethan-1-ol] | ≤ 20 | ≤ 20 |
| F/C(=C\c1ccc(Oc2ccccn2)c(C(F)(F)F)c1N1CCCC2(CCN(CC3CC3)CC2)C1)c1csc(-c2ccnnc2)n1 [Example 14, (Z)-4-(2-(2-(9-(Cyclopropylmethyl)-2,9-diazaspiro[5.5]undecan-2-yl)-4-(pyridin-2-yloxy)-3-(trifluoromethyl)phenyl)-1-fluorovinyl)-2-(pyridazin-4-yl)thiazole] | ≤ 20 | ≤ 20 |
| F/C(=C\c1ccc(OC2CCCCC2)c(C(F)(F)F)c1N1CCCC2(CCN(CC3CC3)CC2)C1)c1ccn(-c2ccnnc2)n1 [Example 15, (Z)-2-(3-(Cyclohexyloxy)-6-(2-fluoro-2-(1-(pyridazin-4-yl)-1H-pyrazol-3-yl)vinyl)-2-(trifluoromethyl)phenyl)-9-(cyclopropylmethyl)-2,9-diazaspiro[5.5]undecane] | 20 to 200 | ≤ 20 |
| F/C(=C\c1ccc(Oc2ccccn2)c(C(F)(F)F)c1N1CCCC2(CCN(CC3CC3)CC2)C1)c1ccn(-c2ccnnc2)n1 [Example 16, (Z)-9-(Cyclopropylmethyl)-2-(6-(2-fluoro-2-(1-(pyridazin-4-yl)-1H-pyrazol-3-yl)vinyl)-3-(pyridin-2-yloxy)-2-(trifluoromethyl)phenyl)-2,9-diazaspiro[5.5]undecane] | ≤ 20 | ≤ 20 |
| CCN1CCC2(CCCN(c3c(/C=C(\F)c4csc(-c5ccnnc5)n4)ccc(Oc4ccccc4)c3C(F)(F)F)C2)CC1 [Example 17, (Z)-4-(2-(2-(9-Ethyl-2,9-diazaspiro[5.5]undecan-2-yl)-4-phenoxy-3-(trifluoromethyl)phenyl)-1-fluorovinyl)-2-(pyridazin-4-yl)thiazole] | ≤ 20 | ≤ 20 |
| F/C(=C\c1ccc(Oc2ccccc2)c(C(F)(F)F)c1N1CCCC2(CCN(CC3CC3)CC2)C1)c1csc(-c2ccnnc2)n1 [Example 18, (Z)-4-(2-(2-(9-(Cyclopropylmethyl)-2,9-diazaspiro[5.5]undecan-2-yl)-4-phenoxy-3-(trifluoromethyl)phenyl)-1-fluorovinyl)-2-(pyridazin-4-yl)thiazole] | 20 to 200 | ≤ 20 |
| CCN1CC2(CCCN(c3c(/C=C(\F)c4ccn(-c5ccnnc5)n4)ccc(Oc4cccc(F)c4F)c3C(F)(F)F)C2)C1 [Example 19, (Z)-6-(3-(2,3-Difluorophenoxy)-6-(2-fluoro-2-(1-(pyridazin-4-yl)-1H-pyrazol-3-yl)vinyl)-2-(trifluoromethyl)phenyl)-2-ethyl-2,6-diazaspiro[3.5]nonane] | ≤ 20 | ≤ 20 |
| F/C(=C\c1ccc(Oc2cccc(F)c2F)c(C(F)(F)F)c1N1CCCC2(CN(CC3CC3)C2)C1)c1ccn(-c2ccnnc2)n1 [Example 20, (Z)-2-(Cyclopropylmethyl)-6-(3-(2,3-difluorophenoxy)-6-(2-fluoro-2-(1-(pyridazin-4-yl)-1H-pyrazol-3-yl)vinyl)-2-(trifluoromethyl)phenyl)-2,6-diazaspiro[3.5]nonane] | ≤ 20 | 20 to 200 |
| F/C(=C\c1ccc(Oc2ccccc2)c(C(F)(F)F)c1N1CCCC2(CCN(CC3CC3)CC2)C1)c1ccn(-c2ccnnc2)n1 [Example 21, (Z)-9-(Cyclopropylmethyl)-2-(6-(2-fluoro-2-(1-(pyridazin-4-yl)-1H-pyrazol-3-yl)vinyl)-3-phenoxy-2-(trifluoromethyl)phenyl)-2,9-diazaspiro[5.5]undecane] | 20 to 200 | ≤ 20 |
